{
  "source": "patent US10125358B2",
  "about": "“Methods and compounds for increasing threonyl-tRNA synthetase activity” (UNIVERSITY OF VERMONT AND STATE AGRICULTURAL COLLEGE, priority 2012, dated 2018)",
  "key": {"TARS [1]": {"molecular_target": "T1, TARS (Homo sapiens, UniProt P26639)", "T1 sequence (P26639 1-723)": "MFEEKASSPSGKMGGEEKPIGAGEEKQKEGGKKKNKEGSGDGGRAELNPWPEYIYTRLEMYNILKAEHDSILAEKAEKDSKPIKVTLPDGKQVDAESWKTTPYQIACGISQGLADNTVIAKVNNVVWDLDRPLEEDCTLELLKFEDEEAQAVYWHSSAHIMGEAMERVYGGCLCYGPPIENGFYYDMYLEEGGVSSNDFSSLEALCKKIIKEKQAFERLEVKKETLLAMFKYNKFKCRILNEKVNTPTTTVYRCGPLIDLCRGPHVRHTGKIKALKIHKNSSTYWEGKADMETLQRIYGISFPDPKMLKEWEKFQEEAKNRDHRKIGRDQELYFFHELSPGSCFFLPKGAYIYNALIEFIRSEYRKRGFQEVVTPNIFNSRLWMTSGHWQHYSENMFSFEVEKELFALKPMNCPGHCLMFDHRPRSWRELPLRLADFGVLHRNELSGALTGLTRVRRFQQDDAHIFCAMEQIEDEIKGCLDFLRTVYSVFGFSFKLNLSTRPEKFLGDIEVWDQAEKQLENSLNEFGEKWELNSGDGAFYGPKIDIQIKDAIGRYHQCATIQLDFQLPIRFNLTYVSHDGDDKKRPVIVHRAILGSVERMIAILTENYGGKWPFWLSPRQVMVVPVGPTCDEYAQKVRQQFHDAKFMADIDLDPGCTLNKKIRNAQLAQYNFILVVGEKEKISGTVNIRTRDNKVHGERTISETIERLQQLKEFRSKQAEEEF", "assay": "Ap4A formation assay (TLC, [α-32P]-ATP)", "assay_type": "biochemical", "design": "His6 (N); made in house; host or cells: E. coli Rosetta 2 (DE3)pLysS, plasmid pET28a hctThrRS"}, "TARS [2]": {"molecular_target": "T1, TARS", "assay": "Ap4G formation assay (TLC, [α-32P]-GTP)", "assay_type": "biochemical", "design": "His6 (N); made in house; host or cells: E. coli Rosetta 2 (DE3)pLysS, plasmid pET28a hctThrRS"}, "[3]": {"system": "Human umbilical vein endothelial cells (HUVECs)", "assay": "In vitro endothelial tube formation assay on Matrigel", "assay_type": "cell-based", "procedure": "In Vitro Tube Formation Assay—\nTube formation assays were performed as described (Arnaoutova and Kleinman 2010; Cassavaugh, Hale et al. 2011). Human Umbilical Vein Endothelial Cells (HUVECs) were seeded in 48-well plates (1.5×10^4 cells/well) coated with 100 μl of Matrigel™ Basement Membrane Matrix Growth Factor Reduced (BD Biosciences, San Jose, Calif.) and incubated in Clonetics® EGM®-2 complete media (Lonza, Annandale, N.J.) or EGM®-2 with reduced serum (0.2% fetal bovine serum). Cells were incubated at 37° C. for 6 h then fixed in 10% formalin. Fixed samples were imaged by phase-contrast microscopy or stained with Oregon Green 488 Phalloidin (Molecular Probes, Eugene, Oreg.) then imaged with fluorescence microscopy (2× objective). Number of tubes and tube lengths (in pixels) were quantified using the Simple Neurite Tracer (Longair, Baker et al. 2011) plug-in on ImageJ software (NIH). Statistical analysis of one-way ANOVA was performed with GraphPad Software. Multiple comparisons were performed using the Tukey Test."}, "[4]": {"system": "chorioallantoic membrane (CAM) of chicken embryos", "assay": "Chick chorioallantoic membrane (CAM) assay", "assay_type": "in vivo", "procedure": "Chick Chorioallantoic Membrane Assay—\nFertilized chicken eggs (Sunrise Farms, Catskill, N.Y.) day 1-2 post-laying were incubated in a humidified incubator at 37° C. for 72 h. Cleaned eggs were cracked and plated in a sterile 10 cm^2 tissue culture-treated dish and incubated at 37° C. for another 7 days. On developmental day 10, 1 mm^3 sterile gelatin sponge pieces (Surgifoam®; Johnson & Johnson Wound Management, Somerville, N.J.) were placed within the outer one-third of the membrane between large vessels. […] All compounds were applied in 10 μl to the CAM every 24 h for 72 h. Images were taken using a Leica MZ6 stereomicroscope every 24 h. Compounds were scored according to a modified version of Intensity Scoring as previously described (Ribatti, Nico et al. 2006). Briefly, each experimental condition was given a blinded score from 0-5 based on the change in the extent of vessel convergence and formation in proximity to the sponge from day 0 to day 3. Total score is averaged individual experimental condition scores from at least 15 replicates.\nFertilized chicken embryos were cultured ex-ova and, starting at developmental day 10, agents were applied daily to gelfoam sponges on the CAM. Images were recorded daily over 72 h and scored blindly according to a modified version Intensity Scoring as previously described (Ribatti, Nico et al. 2006). Additional details regarding methods are provided in the Methods and Materials section of Example 1."}, "TARS [5]": {"molecular_target": "T1, TARS", "assay": "GTPase (GTP hydrolysis) assay", "assay_type": "biochemical", "design": "His6 (N); made in house; host or cells: E. coli Rosetta 2 (DE3)pLysS, plasmid pET28a hctThrRS", "settings": "for GTP hydrolysis rate: 2 mM GTP"}, "HUVEC": {"system": "HUVEC", "assay": "Transwell migration assay", "assay_type": "cell-based, human", "settings": "4 h", "procedure": "Transwell Migration Assay—\nMigration was assessed using transwell inserts (Svensson, Kucharzewska et al. 2011). […] Cultures were incubated for 4 h, fixed in 10% formalin, and stained with 10 μg/ml DAPI solution (Roche) following removal of cells from the top layer of the chamber with a cotton swab. Migrated cells were imaged using a 4× objective on the Olympus IX70 Inverted microscope (Olympus). DAPI-stained nuclei were counted using ImageJ software."}, "HUVECs": {"system": "HUVECs", "assay": "Endothelial cell proliferation assay (alamarBlue)", "assay_type": "cell-based, human", "procedure": "Endothelial Cell Proliferation Assay—\nThe […] alamarBlue® (Invitrogen) reagent was used to assess cell proliferation (Ahmed, Gogal et al. 1994). HUVECs were seeded in a 96-well dish (1×10^3 cells/well) and grown for 48 h in EGM®-2 media. […] After 48 h, 72 h, or 96 h in culture, 10 μl/well premixed alamarBlue® (Invitrogen) was added and after 3 h at 37° C. the amount of reduced alamarBlue® was quantified by fluorescence (excitation at 530 nm, emission at 590 nm) on a microplate reader (Synergy™ HT, BioTek, Winooski, Vt.)."}},
  "note": "“Also recorded” adds a separate entry of the source.",
  "data": [
    {"molecule": "C[C@@H]1C[C@H](C)C[C@H](C)[C@@H](O)CC(=O)O[C@H]([C@@H]2CC[C@H]2C(=O)O)C/C=C/C=C(/C#N)[C@H](O)[C@@H](C)C1", "note": "[BC194]", "values": [
      {"measurement": "Ap4A synthesis, inhibition (qualitative)", "setting": "TARS [1]; human TARS, 10 μM compound", "value": "at least partially inhibited"},
      {"measurement": "decrease in Ap4A formation activity", "setting": "TARS [1]; wildtype TARS, 10 μM compound", "value": 31.0, "unit": "%"},
      {"measurement": "Ap4G synthesis, inhibition (qualitative)", "setting": "TARS [2]; human TARS, 10 μM compound", "value": "at least partially inhibited"},
      {"measurement": "reduction of Ap4G reaction rate", "setting": "TARS [2]; wildtype TARS, 10 μM BC194", "value": 57, "unit": "%"},
      {"measurement": "number of branches formed by endothelial cells in tube formation assay", "setting": "[3]; HUVECs on Matrigel, full serum media, 6 h, range of BC194 concentrations", "value": "sensitive to subnanomolar concentrations; also recorded: inhibits endothelial tube formation"},
      {"measurement": "tube (branch) length", "setting": "[3]; HUVECs, range of BC194 concentrations", "value": "unaffected; also recorded: does not affect"},
      {"measurement": "concentration required to affect tube formation relative to that required to detect unfolded protein response (phospho-eIF2α) and apoptosis (cleaved caspase-3)", "setting": "[3]; lower", "value": 100, "unit": "fold"},
      {"measurement": "CAM vessel formation, effect of inhibitor", "setting": "[4]; BC194 10 nM applied daily, basal level and after stimulation with bFGF or VEGF", "value": "inhibited vessel formation"},
      {"measurement": "change of TARS GTPase activity upon treatment with inhibitor", "setting": "TARS [5]; 10 μM compound", "value": "no observable change"},
      {"measurement": "VEGF- and TARS-mediated migration, effect of BC194", "setting": "HUVEC; 10 nM BC194 with 50 ng/ml VEGF or 100 nM TARS", "value": "reduced both the migration effects of VEGF and TARS"},
      {"measurement": "VEGF proliferative response, effect of BC194", "setting": "HUVECs; HUVECs, 50 ng/ml VEGF, 10 nM BC194", "value": "did not significantly reduce"},
      {"measurement": "proliferation", "setting": "HUVECs; HUVECs, BC194 concentrations below 100 nM", "value": "unaffected"}
    ]},
    {"molecule": "TARS: N-terminal His6-tagged human threonyl-tRNA synthetase expressed and purified from E. coli; SEQ ID NO:2 (protein, listed as Homo sapiens, N-terminal His6 tag) MFEEKASSPSGKMGGEEKPIGAGEEKQKEGGKKKNKEGSGDGGRAELNPWPEYIYTRLEMYNILKAEHDSILAEKAEKDSKPIKVTLPDGKQVDAESWKTTPYQIACGISQGLADNTVIAKVNNVVWDLDRPLEEDCTLELLKFEDEEAQAVYWHSSAHIMGEAMERVYGGCLCYGPPIENGFYYDMYLEEGGVSSNDFSSLEALCKKIIKEKQAFERLEVKKETLLAMFKYNKFKCRILNEKVNTPTTTVYRCGPLIDLCRGPHVRHTGKIKALKIHKNSSTYWEGKADMETLQRIYGISFPDPKMLKEWEKFQEEAKNRDHRKIGRDQELYFFHELSPGSCFFLPKGAYIYNALIEFIRSEYRKRGFQEVVTPNIFNSRLWMTSGHWQHYSENMFSFEVEKELFALKPMNCPGHCLMFDHRPRSWRELPLRLADFGVLHRNELSGALTGLTRVRRFQQDDAHIFCAMEQIEDEIKGCLDFLRTVYSVFGFSFKLNLSTRPEKFLGDIEVWDQAEKQLENSLNEFGEKWELNSGDGAFYGPKIDIQIKDAIGRYHQCATIQLDFQLPIRFNLTYVSHDGDDKKRPVIVHRAILGSVERMIAILTENYGGKWPFWLSPRQVMVVPVGPTCDEYAQKVRQQFHDAKFMADIDLDPGCTLNKKIRNAQLAQYNFILVVGEKEKISGTVNIRTRDNKVHGERTISETIERLQQLKEFRSKQAEEEF", "values": [
      {"measurement": "Ap4A production rate", "setting": "TARS [1]; 5 μM enzyme, 2 mM threonine, 2 mM ATP", "value": 0.1391, "unit": "Ap4A/active site/min"},
      {"measurement": "Ap4G formation rate", "setting": "TARS [2]; 2 mM ATP, 2 mM threonine, 2 mM GTP", "value": 0.1639, "unit": "Ap4G/active site/min"},
      {"measurement": "number of tube branches", "setting": "[3]; 100 nM purified recombinant human TARS added to low serum (0.2% FBS) media, 6 h", "value": "significantly increased; also recorded: promotes angiogenesis"},
      {"measurement": "sensitivity of synthetase-induced CAM angiogenesis to BC194", "setting": "[4]; protein plus BC194 applied to CAM", "value": "sensitive to BC194"},
      {"measurement": "CAM vessel formation / vascularity, effect of applied synthetase", "setting": "[4]; purified protein applied daily to gelfoam sponge, 72 h", "value": "stimulated vessel formation; also recorded: induces in vivo angiogenesis"},
      {"measurement": "GTP hydrolysis rate", "setting": "TARS [5]; listed as human TARS", "value": "potent GTPase activities"},
      {"measurement": "GTP hydrolysis rate", "setting": "TARS [5]; listed as wildtype", "value": 0.3033, "unit": "GDP/active site/min"},
      {"measurement": "migration of endothelial cells", "setting": "HUVEC; 100 nM protein in migration compartment", "value": "significantly increased migration; also recorded: selectively induces migration"},
      {"measurement": "cell proliferation, effect of TARS", "setting": "HUVECs; HUVECs in low serum (0.2% FBS) media", "value": "did not exert a significant effect; also recorded: does not significantly affect cell proliferation"}
    ]}
  ]
}
